The target in this test is T1, recombinant human 5-HT5A receptor (Homo sapiens, UniProt P47898).
T1 construct: expressed in transfected cells; host or cells: HEK-EBNA (Human Embryonic Kidney-EBNA) cells, transient cDNA expression; membranes
T1 sequence (P47898 whole entry): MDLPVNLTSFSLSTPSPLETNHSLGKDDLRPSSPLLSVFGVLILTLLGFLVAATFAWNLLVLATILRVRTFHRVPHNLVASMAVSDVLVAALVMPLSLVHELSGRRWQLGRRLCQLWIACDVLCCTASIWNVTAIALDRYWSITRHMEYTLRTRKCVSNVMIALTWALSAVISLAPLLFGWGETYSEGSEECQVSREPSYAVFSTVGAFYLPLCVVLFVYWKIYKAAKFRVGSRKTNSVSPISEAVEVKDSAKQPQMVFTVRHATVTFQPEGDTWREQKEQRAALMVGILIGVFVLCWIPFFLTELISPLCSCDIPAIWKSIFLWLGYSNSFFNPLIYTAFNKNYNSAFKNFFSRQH
In words: [3H]LSD radioligand binding assay, membranes of HEK-EBNA cells transiently expressing 5-HT5A receptors. The note with it: [3H]LSD approx. 1 nM, SPA beads, 120 min at room temperature; Ki from IC50 by the Cheng-Prussoff equation. Here is the method:
A [^3H]LSD radioligand binding assay was used to determine the affinity of the compounds for the recombinant human 5-HT5A receptor, in membranes from transiently (cDNA) expressed 5-HT5A receptors in Human Embryonic Kidney-EBNA (HEK-EBNA) cells. Assay buffer consisted of Tris (50 mM) buffer containing 1 mM EGTA, 10 mM MgCl2 (pH 7.4) and 10 μM pargyline. The binding assay was carried out in 96-well-plates in the presence of [^3H]LSD (approximately 1 nM), approximately 2 μg/well of membrane protein, and 0.5 mg of Ysi-poly-1-lysine SPA beads in a final volume of 200 μl of buffer. Non-specific binding was defined using methiothepin 2 μM. Compounds were tested at 10 concentrations. All assays were conducted in duplicate and repeated at least two times. Assay plates were incubated for 120 min at room temperature before centrifugation. Bound ligand was determined using a Packard Topcount scintillation counter. IC50 values were calculated using a non-linear curve fitting program and Ki values calculated using the Cheng-Prussoff equation.
Broadly, the Ki is a measure of affinity in units of concentration, obtained from inhibition or displacement. Take `O=S(=O)(Nc1cccc2c1COC(N[C@@H]1CCc3ccccc31)=N2)c1cc(F)cc(F)c1` [Example 6, 3,5-Difluoro-N-[2-((R)-indan-1-ylamino)-4H-benzo[d][1,3]oxazin-5-yl]-benzenesulfonamide]: the Ki amounted to 2 nM.
`CS(=O)(=O)Nc1cccc2c1COC(N[C@@H]1CCc3ccccc31)=N2` [Example 10, N-[2-((R)-Indan-1-ylamino)-4H-benzo[d][1,3]oxazin-5-yl]-methanesulfonamide]: the inhibition constant Ki is 5 nM.
The same measure for `O=S(=O)(Nc1cccc2c1COC(N[C@@H]1CCc3ccccc31)=N2)C1CC1` [Example 8, Cyclopropanesulfonic acid [2-((R)-indan-1-ylamino)-4H-benzo[d][1,3]oxazin-5-yl]-amide]: 2 nM.
Then `O=[N+]([O-])c1cccc2c1COC(N[C@@H]1CCc3ccccc31)=N2` [Example 2, (R)-Indan-1-yl-(5-nitro-4H-benzo[d][1,3]oxazin-2-yl)-amine], with 169 nM; and `Fc1ccc(-c2cccc3c2COC(N[C@@H]2CCc4ccccc42)=N3)cc1` [Example 13, [5-(4-Fluoro-phenyl)-4H-benzo[d][1,3]oxazin-2-yl]-(R)-indan-1-yl-amine], with 78 nM.
The same measure for `N#Cc1cccc2c1COC(N[C@@H]1CCc3ccccc31)=N2` [Example 11, 2-((R)-Indan-1-ylamino)-4H-benzo[d][1,3]oxazine-5-carbonitrile]: 118 nM; for `Fc1ccc(Nc2cccc3c2COC(N[C@@H]2CCc4ccccc42)=N3)cc1` [Example 14, N^5-(4-Fluoro-phenyl)-N^2—(R)-indan-1-yl-4H-benzo[d][1,3]oxazine-2,5-diamine]: 3 nM.
For `Clc1cccc2c1COC(N[C@@H]1CCc3ccccc31)=N2` [Example 1, (5-Chloro-4H-benzo[d][1,3]oxazin-2-yl)-(R)-indan-1-yl-amine], the Ki was 57 nM.
Then `COc1cccc2c1C(NC1=Nc3cccc(NS(=O)(=O)c4cc(F)cc(F)c4)c3CO1)CO2` (stereo not drawn) [Example 7, 3,5-Difluoro-N-[2-(4-methoxy-2,3-dihydro-benzofuran-3-ylamino)-4H-benzo[d][1,3]oxazin-5-yl]-benzenesulfonamide], with 10 nM; and `Nc1cccc2c1COC(N[C@@H]1CCc3ccccc31)=N2` [Example 3, (R)—N^2-Indan-1-yl-4H-benzo[d][1,3]oxazine-2,5-diamine], with 3 nM.
With `Brc1cccc2c1COC(N[C@@H]1CCc3ccccc31)=N2` [Example 9, (5-Bromo-4H-benzo[d][1,3]oxazin-2-yl)-(R)-indan-1-yl-amine], the Ki was found to be 106 nM.
As to `O=C(Cc1ccc(Cl)cc1)Nc1cccc2c1COC(N[C@@H]1CCc3ccccc31)=N2` [Example 5, 2-(4-Chloro-phenyl)-N-[2-((R)-indan-1-ylamino)-4H-benzo[d][1,3]oxazin-5-yl]-acetamide], the inhibitory constant (Ki) amounted to 131 nM.
For the molecule `c1ccc2c(c1)CC[C@H]2NC1=Nc2cccc(C3CC3)c2CO1` [Example 12, (5-Cyclopropyl-4H-benzo[d][1,3]oxazin-2-yl)-(R)-indan-1-yl-amine], the inhibition constant Ki was 13 nM.
On to `COc1cccc2c1C(NC1=Nc3cccc(N)c3CO1)CO2` (stereo not drawn) [Example 4, N^2-(4-Methoxy-2,3-dihydro-benzofuran-3-yl)-4H-benzo[d][1,3]oxazine-2,5-diamine], for which the Ki came out at 27 nM.
On to `Clc1ccc(Nc2cccc3c2COC(N[C@@H]2CCc4ccccc42)=N3)cc1` [Example 15, N^5-(4-Chloro-phenyl)-N^2—(R)-indan-1-yl-4H-benzo[d][1,3]oxazine-2,5-diamine], for which the inhibition constant (Ki) was determined as 2 nM.

These data come from patent US8044047B2, “5-substituted benzoxazines” (Hoffman-La Roche Inc., priority 2008, dated 2011).
